# Experimental data published in patent US12391687B2, “Five-and-six-membered heterocyclic compound and use thereof as protein receptor kinase inhibitor” (SHANGHAI ENNOVABIO PHARMACEUTICALS CO., LTD., priority 2018, dated 2025).
# Columns and labels:
# [1] = target: Recombinant human TRKB (Homo sapiens (Human), UniProt Q16620); assay: In vitro activity test on TRKB kinase (HTRF kinEASE TK); format: biochemical; settings: 4.77 μM ATP, 50 min, room temperature
# Experimental: (§1) Recombinant human TRKA, TRKB, TRKC proteins were purchased from Carna Biosciences. HTRF kinEASE TK kit was purchased from Cisbio Bioassays. Synergy Neo 2 of Biotek was used to read the plate.
# (§2) The tested compounds were subjected to 3-fold serial dilution to reach a final concentration of 1 μM to 0.05 nM (10 concentrations), duplicates for each concentration; and the DMSO concentration in the detection reaction was 1%.
# (§3) 0.037 ng/μL TRKB protein kinase, 1 μM TK Substrate-biotin polypeptide substrate, 4.77 μM ATP, 1× enzymatic buffer, 5 mM MgCl2, 1 mM MnCl2 and 1 mM DTT. The assay plate was White Proxiplate 384-Plus plate (PerkinElmer), the reaction was incubated at room temperature for 50 min, and the assay volume was 10 μL.
# (§4) 10 μL of detection reagent (containing 0.125 μM SA-XL665 and 5 μL 1×TK-Antibody) was added to the plate and incubated overnight at room temperature. Synergy Neo 2 was used to read the plate.
# (§5) The 665/620 Ratio was converted according to the following formula into inhibition rate (%)=(1−Ratiotest/Ratiomax)×100%. Ratiomax was the value of positive controls without tested compound, and Ratiotest was the value of each concentration of different compounds. IC50 (nM) data was obtained by 4 parameter curve fitting (see Table 1).
# [2] = target: recombinant human TRKA (G595R) (Homo sapiens (Human), UniProt P04629, G595R); assay: In vitro activity test on mutant TRKA (G595R) (HTRF kinEASE TK); format: biochemical; settings: 4.5 μM ATP, 30 min, room temperature; read-out: TRKA (G595R) IC 50
# Experimental: The recombinant human TRKA (G595R), TRKA (G667C) and TRKC (G623R) proteins were purchased from SignalChem. HTRF kinEASE TK kit was purchased from Cisbio Bioassays. Synergy Neo 2 of Biotek was used to read the plate.
# The tested compounds were subjected to 4-fold serial dilution to reach a final concentration of 1 μM to 0.004 nM (10 concentrates), duplicates for each concentration; and the final concentration of DMSO in the reaction was 1%.
# 0.12 ng/μL TRKA (G595R) kinase, 1 μM TK Substrate-biotin polypeptide substrate, 4.5 μM ATP, 1× enzymatic buffer, 5 mM MgCl2, and 1 mM DTT. The assay plate was White Proxiplate384-Plus plate (PerkinElmer), and the reaction was incubated at room temperature for 30 min, and the assay volume was 10 μL.
# 10 μL of detection reagent (containing 0.125 μM SA-XL665 and 5 μL 1×TK-Antibody) was added to the plate and incubated overnight at room temperature, and Synergy Neo 2 was used to read the plate.
# The value of 665/620 Ratio minus the value of negative control wells without enzyme, then the obtained value was converted according to the following formula into inhibition rate (%)=(1−Ratiotest/Ratiomax)×100%. Ratiomax was the value of positive controls without tested compound, and Ratiotest was the value of each concentration of different compounds. IC50 (nM) data was obtained by 4 parameter curve fitting (see Table 3).
# [3] = target: Recombinant human TRKA (Homo sapiens (Human), UniProt P04629); assay: In vitro activity test on TRKA kinase (HTRF kinEASE TK); format: biochemical; settings: 14.68 μM ATP, 40 min, room temperature
# Experimental: as §1, §2
# 0.2 ng/μL TRKA protein kinase, 1 μM TK Substrate-biotin polypeptide substrate, 14.68 μM ATP, 1×enzymatic buffer, 5 mM MgCl2, and 1 mM DTT. The assay plate was White Proxiplate384-Plus plate (PerkinElmer), and the reaction was incubated at room temperature for 40 min, and the assay volume was 10 μL.
# as §4, §5
# [4] = target: Recombinant human TRKC (Homo sapiens (Human), UniProt Q16288); assay: In vitro activity test on TRKC kinase (HTRF kinEASE TK); format: biochemical; settings: 25.64 μM ATP, 40 min, room temperature
# Experimental: as §1, §2
# as §3, with “ng/μL TRKC” for “ng/μL TRKB”, “substrate, 25.64” for “substrate, 4.77”, “MgCl2,” for “MgCl2, 1 mM MnCl2”, “The detection” for “The assay”, “for 40” for “for 50”
# as §4, §5
# [5] = system: KM12-LUC cells; assay: KM12-LUC cell proliferation experiment (CellTiter-Glo); format: cell-based; settings: human colon cancer cell line with TPM3-NTRK1 fusion, 72 hours
# Experimental: Human colon cancer cell line KM12-LUC (LUC, stably expressing Luciferase) expressing TPM3-NTRK1 fusion gene was used to evaluate cellular activity of the compounds. The TRK fusion gene in KM12-LUC cells makes the sustained activation of TRK and the downstream signaling pathways associated with cell proliferation such as MAPK-ERK, PI3K-AKT, etc independent of the stimulation of extracellular growth factor. […] The method was as follows: On the first day, the cells were seeded into 384-well plates at 2000 cells/well; on the second day, different concentrations of test compounds were added; and on the 5th day, CellTiter-Glo (Promega) was added to detect cell viability, and the cell proliferation inhibition rate at 72 hours was calculated. Statistical analysis was carried out by PRISM5 and the IC50 of the test compounds was calculated.
# Sequence of recombinant human TRKA (G595R) (P04629 33-796 G595R): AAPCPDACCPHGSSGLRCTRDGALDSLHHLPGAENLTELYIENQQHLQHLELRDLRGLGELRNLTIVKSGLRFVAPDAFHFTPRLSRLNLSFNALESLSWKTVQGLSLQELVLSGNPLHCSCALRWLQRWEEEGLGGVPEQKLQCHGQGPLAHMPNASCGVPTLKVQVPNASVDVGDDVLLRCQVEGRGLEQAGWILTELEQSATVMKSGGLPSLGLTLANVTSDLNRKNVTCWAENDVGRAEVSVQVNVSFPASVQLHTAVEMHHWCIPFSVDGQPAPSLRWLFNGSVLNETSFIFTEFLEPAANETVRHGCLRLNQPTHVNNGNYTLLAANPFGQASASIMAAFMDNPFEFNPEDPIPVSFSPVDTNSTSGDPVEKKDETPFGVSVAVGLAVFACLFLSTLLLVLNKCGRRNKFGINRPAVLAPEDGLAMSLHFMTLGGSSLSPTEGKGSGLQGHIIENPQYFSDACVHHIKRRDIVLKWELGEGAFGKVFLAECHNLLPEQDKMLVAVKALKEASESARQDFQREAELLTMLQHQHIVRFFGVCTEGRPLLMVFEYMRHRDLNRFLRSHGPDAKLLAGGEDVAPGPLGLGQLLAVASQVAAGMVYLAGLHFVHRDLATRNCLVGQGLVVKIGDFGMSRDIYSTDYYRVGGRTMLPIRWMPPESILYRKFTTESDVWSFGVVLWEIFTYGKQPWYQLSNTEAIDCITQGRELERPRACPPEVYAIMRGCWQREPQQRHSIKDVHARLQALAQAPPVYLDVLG
# Sequence of Recombinant human TRKC (Q16288 32-839): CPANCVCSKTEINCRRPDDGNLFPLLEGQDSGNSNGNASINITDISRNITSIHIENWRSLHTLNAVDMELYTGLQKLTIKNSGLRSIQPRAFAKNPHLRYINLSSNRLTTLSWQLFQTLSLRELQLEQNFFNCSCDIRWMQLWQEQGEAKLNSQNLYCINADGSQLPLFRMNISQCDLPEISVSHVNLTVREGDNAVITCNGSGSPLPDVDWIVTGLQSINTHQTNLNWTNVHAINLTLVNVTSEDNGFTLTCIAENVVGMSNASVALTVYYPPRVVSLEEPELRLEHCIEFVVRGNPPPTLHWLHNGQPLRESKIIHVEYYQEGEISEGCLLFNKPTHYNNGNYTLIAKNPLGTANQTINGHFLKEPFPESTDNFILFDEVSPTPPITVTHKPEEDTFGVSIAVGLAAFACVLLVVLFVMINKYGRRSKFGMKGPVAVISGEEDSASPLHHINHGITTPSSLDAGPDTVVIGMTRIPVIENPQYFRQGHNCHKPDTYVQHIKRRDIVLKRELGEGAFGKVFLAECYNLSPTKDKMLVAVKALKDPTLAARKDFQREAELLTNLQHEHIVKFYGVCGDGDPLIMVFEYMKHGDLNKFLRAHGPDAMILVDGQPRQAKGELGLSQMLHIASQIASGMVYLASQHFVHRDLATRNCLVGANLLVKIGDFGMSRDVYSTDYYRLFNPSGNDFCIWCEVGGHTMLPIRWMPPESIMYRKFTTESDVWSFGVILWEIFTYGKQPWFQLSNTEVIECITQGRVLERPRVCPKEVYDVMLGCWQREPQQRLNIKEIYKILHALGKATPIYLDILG
# Sequence of Recombinant human TRKA (P04629 33-796): as the sequence (P04629 33-796 G595R) above, with R563G counted along it
# Sequence of Recombinant human TRKB (Q16620 32-822): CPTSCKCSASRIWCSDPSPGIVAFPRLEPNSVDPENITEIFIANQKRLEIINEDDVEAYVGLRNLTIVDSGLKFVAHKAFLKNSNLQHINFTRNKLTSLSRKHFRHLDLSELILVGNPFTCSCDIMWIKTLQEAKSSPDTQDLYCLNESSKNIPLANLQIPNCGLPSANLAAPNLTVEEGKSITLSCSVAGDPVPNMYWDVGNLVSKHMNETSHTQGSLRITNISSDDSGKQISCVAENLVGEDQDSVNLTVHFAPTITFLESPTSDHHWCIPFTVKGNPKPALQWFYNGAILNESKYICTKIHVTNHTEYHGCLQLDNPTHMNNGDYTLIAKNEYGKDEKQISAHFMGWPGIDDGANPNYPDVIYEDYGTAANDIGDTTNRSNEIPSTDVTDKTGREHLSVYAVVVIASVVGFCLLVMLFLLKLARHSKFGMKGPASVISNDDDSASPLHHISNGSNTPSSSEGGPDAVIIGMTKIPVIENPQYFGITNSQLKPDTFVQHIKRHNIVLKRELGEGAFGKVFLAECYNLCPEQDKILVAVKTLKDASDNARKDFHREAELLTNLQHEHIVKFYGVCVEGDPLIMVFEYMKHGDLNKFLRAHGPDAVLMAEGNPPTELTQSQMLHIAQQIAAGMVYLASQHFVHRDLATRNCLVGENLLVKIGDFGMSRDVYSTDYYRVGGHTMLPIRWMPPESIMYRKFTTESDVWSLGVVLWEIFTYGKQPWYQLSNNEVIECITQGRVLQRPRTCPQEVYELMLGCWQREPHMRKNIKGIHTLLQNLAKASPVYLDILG
Structure (SMILES),IC50 [1] [nM],IC50 [2] [nM],IC50 [3] [nM],IC50 [4] [nM],IC50 [5] [nM]
"O=C(O)c1cnc2[nH]nc(N3C[C@@H](F)C[C@@H]3c3cc(F)ccc3F)c2c1 [Example 17, 3-((2R,4S)-2-(2,5-difluorophenyl)-4-fluoropyrrolidin-1-yl)-1H-pyrazolo[3,4-b]pyridine-5-carboxylic acid]",< 1,< 10,< 1,< 1,–
"CS(=O)(=O)n1cc(-c2cnc3[nH]nc(N4C[C@@H](F)C[C@@H]4c4cc(F)ccc4F)c3c2)cn1 [Example 27, 3-((2R,4S)-2-(2,5-difluorophenyl)-4-fluoropyrrolidin-1-yl)-5-(1-(methylsulfonyl)-1H-pyrazol-4-yl)-1H-pyrazolo[3,4-b]pyridine]",< 1,< 1,< 1,< 1,–
"Fc1ccc(F)c([C@H]2C[C@H](F)CN2c2n[nH]c3ncc(-c4cnn(C5CCOCC5)c4)cc23)c1 [Example 28, 3-((2R,4S)-2-(2,5-difluorophenyl)-4-fluoropyrrolidin-1-yl)-5-(1-(tetrahydro-2H-pyran-4-yl)-1H-pyrazol-4-yl)-1H-pyrazolo[3,4-b]pyridine]",< 1,< 1,< 1,< 1,–
"CC(C)OC(=O)c1cnc2[nH]nc(N3C[C@@H](F)C[C@@H]3c3cc(F)ccc3F)c2c1 [Example 19, isopropyl 3-((2R,4S)-2-(2,5-difluorophenyl)-4-fluoropyrrolidin-1-yl)-1H-pyrazolo[3,4-b]pyridine-5-carboxylate]",< 1,< 1,< 1,< 1,–
"COC(=O)c1cnc2[nH]nc(N3C[C@@H](F)C[C@@H]3c3cc(F)ccc3F)c2c1 [Example 13, Methyl 3-((2R,4S)-2-(2,5-difluorophenyl)-4-fluoropyrrolidin-1-yl)-1H-pyrazolo[3,4-b]pyridine-5-carboxylate]",< 1,< 1,< 1,< 1,–
"Fc1ccc(F)c([C@H]2C[C@H](F)CN2c2n[nH]c3ncc(-c4cnn(COCc5ccccc5)c4)cc23)c1 [Example 31, 5-(1-((benzyloxy)methyl)-1H-pyrazol-4-yl)-3-((2R,4S)-2-(2,5-difluorophenyl)-4-fluoropyrrolidin-1-yl)-1H-pyrazolo[3,4-b]pyridine]",< 1,< 10,< 10,< 10,–
"O=C(Nc1cnc2[nH]nc(N3CCC[C@@H]3c3cc(F)ccc3F)c2c1)c1ccc(N2CC[C@H](O)C2)nc1 [Example 3, N-(3-((R)-2-(2,5-difluorophenyl)pyrrolidin-1-yl)-1H-pyrazolo[3,4-b]pyridin-5-yl)-6-((S)-3-hydroxypyrrolidin-1-yl)nicotinamide]",< 100,–,< 50,< 50,–
"Fc1ccc(F)c([C@H]2C[C@H](F)CN2c2n[nH]c3ncc(-c4nn[nH]n4)cc23)c1 [Example 21, 3-((2R,4S)-2-(2,5-difluorophenyl)-4-fluoropyrrolidin-1-yl)-5-(2H-tetrazol-5-yl)-1H-pyrazolo[3,4-b]pyridine]",< 1,< 1,< 1,< 1,–
"CC1(O)CCN(c2cnc(C(=O)Nc3cnc4[nH]nc(N5C[C@@H](F)C[C@@H]5c5cc(F)ccc5F)c4c3)cn2)C1 (stereo partly drawn) [Example 16, N-(3-((2R,4S)-2-(2,5-difluorophenyl)-4-fluoropyrrolidin-1-yl)-1H-pyrazolo[3,4-b]pyridin-5-yl)-5-(3-hydroxy-3-methylpyrrolidin-1-yl)pyrazine-2-carboxamide]",< 10,–,< 1,< 10,–
"O=C(N[C@H]1CC[C@@H](O)CC1)c1cnc2[nH]nc(N3CCC[C@@H]3c3cc(F)ccc3F)c2c1 [Example 14, 3-((R)-2-(2,5-difluorophenyl)pyrrolidin-1-yl)-N-((1s,4S)-4-hydroxycyclohexyl)-1H-pyrazolo[3,4-b]pyridine-5-carboxamide]",< 10,–,< 10,< 10,–

# Second part, led by results:
IC50 [1] [nM],IC50 [2] [nM],IC50 [3] [nM],IC50 [4] [nM],Structure (SMILES),IC50 [5] [nM]
< 1,< 10,< 1,< 1,"Fc1ccc(F)c([C@H]2C[C@H](F)CN2c2n[nH]c3ncc(-c4cnn(CC5CNC5)c4)cc23)c1 [Example 34, 5-(1-(azetidin-3-ylmethyl)-1H-pyrazol-4-yl)-3-((2R,4S)-2-(2,5-difluorophenyl)-4-fluoropyrrolidin-1-yl)-1H-pyrazolo[3,4-b]pyridine]",–
< 1,< 1,< 1,< 1,"COCc1nnc(-c2cnc3[nH]nc(N4C[C@@H](F)C[C@@H]4c4cc(F)ccc4F)c3c2)o1 [Example 37, 2-(3-((2R,4S)-2-(2,5-difluorophenyl)-4-fluoropyrrolidin-1-yl)-1H-pyrazolo[3,4-b]pyridin-5-yl)-5-(methoxymethyl)-1,3,4-oxadiazole]",< 10
< 1,< 1,< 1,< 1,"O=C(c1n[nH]c2nccc(N[C@@H]3CCC[C@H]3O)c12)N1C[C@@H](F)C[C@@H]1c1cc(F)ccc1F [Example 43, ((2R,4S)-2-(2,5-difluorophenyl)-4-fluoropyrrolidin-1-yl)(4-(((1R,2R)-2-hydroxycyclopentyl)amino)-1H-pyrazolo[3,4-b]pyridin-3-yl)methanone]",–
< 1,< 1,< 1,< 1,"CN(C)CCn1cc(-c2cnc3[nH]nc(N4C[C@@H](F)C[C@@H]4c4cc(F)ccc4F)c3c2)cn1 [Example 33, 2-(4-(3-((2R,4S)-2-(2,5-difluorophenyl)-4-fluoropyrrolidin-1-yl)-1H-pyrazolo[3,4-b]pyridin-5-yl)-1H-pyrazol-1-yl)-N,N-dimethylethan-1-amine]",< 1
< 1,< 1,< 1,< 1,"Fc1ccc(F)c([C@H]2C[C@H](F)CN2c2n[nH]c3ncc(-c4nnc(COC(F)(F)F)o4)cc23)c1 [Example 41, 2-(3-((2R,4S)-2-(2,5-difluorophenyl)-4-fluoropyrrolidin-1-yl)-1H-pyrazolo[3,4-b]pyridin-5-yl)-5-((trifluoromethoxy)methyl)-1,3,4-oxadiazole]",–
< 10,–,< 100,< 100,"COCc1nnc(-c2cnc3c(c2)c(N2C[C@@H](F)C[C@@H]2c2cc(F)ccc2F)nn3COC)o1 [Example 38, 2-(3-((2R,4S)-2-(2,5-difluorophenyl)-4-fluoropyrrolidin-1-yl)-1-(methoxymethyl)-1H-pyrazolo[3,4-b]pyridin-5-yl)-5-(methoxymethyl)-1,3,4-oxadiazole]",–
< 1,< 10,< 1,< 1,"Cc1cn(CC(F)F)nc1-c1cnc2[nH]nc(N3C[C@@H](F)C[C@@H]3c3cc(F)ccc3F)c2c1 [Example 40, 5-(1-(2,2-difluoroethyl)-4-methyl-1H-pyrazol-3-yl)-3-((2R,4S)-2-(2,5-difluorophenyl)-4-fluoropyrrolidin-1-yl)-1H-pyrazolo[3,4-b]pyridine]",–
